Measurements as given in US9493411B2 (AbbVie Inc., priority 2013, dated 2016).
Values belong to the compound of their own block, whether it stands above or below them.

Legend:
[1] = target: T1, BRD4 (BDII_E352-M457) (Homo sapiens, UniProt O60885); experiment: TR-FRET bromodomain binding assay, BRD4 second bromodomain; details: His-tagged BD2, Alexa647-labeled probe 30 nM; Ki calculated from IC50
T1 construct: made in house
Description: (§1) A time-resolved fluorescence resonance energy transfer (TR-FRET) assay was used to determine the affinities of compounds of the Examples listed in Table 1 for each bromodomain of BRD4. His-tagged first (BD1: amino acids K57-E168) and second (BD2: amino acids E352-E168) bromodomains of BRD4 were expressed and purified. An Alexa647-labeled BET-inhibitor was used as the fluorescent probe in the assay.
(§2) Compound dilution series were prepared in DMSO via a 3-fold serial dilution from 2.5 mM to 42 nM. Compounds were then diluted 6:100 in assay buffer (20 mM Sodium Phosphate, pH 6.0, 50 mM NaCl, 1 mM Ethylenediaminetetraacetic acid disodium salt dihydrate, 0.01% Triton X-100, 1 mM DL-Dithiothreitol) to yield 3× working solutions. Six microliters (μL) of the working solution was then transferred to white, low-volume assay plates (Costar #3673). A 1.5× assay mixture containing His-tagged bromodomain, Europium-conjugated anti-His antibody (Invitrogen PV5596) and the Alexa-647-conjugated probe molecule was also prepared. Twelve μL of this solution were added to the assay plate to reach a final volume of 18 μL. The final concentration of 1× assay buffer contains 2% DMSO, 50 μM-0.85 nM compound, 8 nM His-tagged bromodomain, 1 nM Europium-conjugated anti-His-tag antibody and 100 nM or 30 nM probe (for BDI or BDII, respectively). After a one-hour incubation at room temperature, TR-FRET ratios were determined using an Envision multilabel plate reader (Ex 340, Em […]).
(§3) TR-FRET data were normalized to the means of 24 no-compound controls (“high”) and 8 controls containing 1 μM un-labeled probe (“low”). Percent inhibition was plotted as a function of compound concentration and the data were fit with the 4 parameter logistic equation to obtain IC50s. Inhibition constants (Ki) were calculated from the IC50s, probe Kd and probe concentration. Typical Z′ values were between 0.65 and 0.75. The minimum significant ratio was determined to evaluate assay reproducibility (Eastwood et al., (2006) J Biomol Screen, 11: 253-261). The MSR was determined to be 2.03 for BDI and 1.93 for BDII, and a moving MSR (last six run MSR overtime) for both BDI and BDII was typically <3.

[2] = target: T2, BRD4 (BDI_K57-E168) (Homo sapiens, UniProt O60885); experiment: TR-FRET bromodomain binding assay, BRD4 first bromodomain; details: His-tagged BD1, Alexa647-labeled probe 100 nM; Ki calculated from IC50
T2 construct: BD1: amino acids K57-E168; made in house
Description: as §1, §2, §3

Compound: CCOC(=O)CCN(Cc1ccccc1)C(=O)c1cc(-c2ccc(-c3c(C)noc3C)cc2)[nH]c1C [Example 96, ethyl N-benzyl-N-({5-[4-(3,5-dimethyl-1,2-oxazol-4-yl)phenyl]-2-methyl-1H-pyrrol-3-yl}carbonyl)-beta-alaninate]
- Ki [1]: 21.5 µM
- Ki [2]: 3.19 µM

Compound: Cc1[nH]c(-c2ccc(-c3cccc(O)c3)cc2)cc1C(N)=O [Example 98, 5-(3′-hydroxybiphenyl-4-yl)-2-methyl-1H-pyrrole-3-carboxamide]
- Ki [1]: 7.01 µM
- Ki [2]: 11.3 µM

Compound: Cc1[nH]c(-c2ccc(-c3ccoc3)cc2)cc1C(N)=O [Example 100, 5-[4-(furan-3-yl)phenyl]-2-methyl-1H-pyrrole-3-carboxamide]
- Ki [1]: 5.32 µM
- Ki [2]: 8.36 µM

Compound: Cc1[nH]c(-c2ccc(-c3ccsc3)cc2)cc1C(N)=O [Example 101, 2-methyl-5-[4-(thiophen-3-yl)phenyl]-1H-pyrrole-3-carboxamide]
- Ki [1]: 5.33 µM
- Ki [2]: 7.37 µM

Compound: Cc1[nH]c(-c2ccc(-c3cnn(C)c3)cc2)cc1C(N)=O [Example 103, 2-methyl-5-[4-(1-methyl-1H-pyrazol-4-yl)phenyl]-1H-pyrrole-3-carboxamide]
- Ki [1]: 3.48 µM
- Ki [2]: 4.66 µM

Compound: Cc1[nH]c(-c2ccc(-c3ccc(C(=O)N(C)C)cc3)cc2)cc1C(N)=O [Example 108, 5-[4′-(dimethylcarbamoyl)biphenyl-4-yl]-2-methyl-1H-pyrrole-3-carboxamide]
- Ki [1]: 4.49 µM
- Ki [2]: 11 µM

Compound: Cc1[nH]c(-c2ccc(-c3ccc(NS(C)(=O)=O)cc3)cc2)cc1C(N)=O [Example 110, 2-methyl-5-{4′-[(methylsulfonyl)amino]biphenyl-4-yl}-1H-pyrrole-3-carboxamide]
- Ki [1]: 5.9 µM
- Ki [2]: 4.03 µM

Compound: Cc1[nH]c(-c2ccc(-c3ccc4ncccc4c3)cc2)cc1C(N)=O [Example 113, 2-methyl-5-[4-(quinolin-6-yl)phenyl]-1H-pyrrole-3-carboxamide]
- Ki [1]: 4.22 µM
- Ki [2]: 4.64 µM

Compound: Cc1[nH]c(-c2ccc(-c3ccc(C(=O)N4CCN(C)CC4)cc3)cc2)cc1C(N)=O [Example 114, 2-methyl-5-{4′-[(4-methylpiperazin-1-yl)carbonyl]biphenyl-4-yl}-1H-pyrrole-3-carboxamide]
- Ki [1]: 3.68 µM
- Ki [2]: 3.96 µM

Compound: Cc1[nH]c(-c2ccccc2Oc2ccc(Cl)cc2)cc1C(N)=O [Example 116, 5-[2-(4-chlorophenoxy)phenyl]-2-methyl-1H-pyrrole-3-carboxamide]
- Ki [1]: 0.639 µM
- Ki [2]: 0.182 µM

Compound: Cc1[nH]c(-c2ccccc2Oc2ccc(C3CCCC3)cc2)cc1C(N)=O [Example 124, 5-[2-(4-cyclopentylphenoxy)phenyl]-2-methyl-1H-pyrrole-3-carboxamide]
- Ki [1]: 13.1 µM
- Ki [2]: 4.6 µM

Compound: Cc1[nH]c(-c2ccccc2Oc2cccc3c2CCCC3)cc1C(N)=O [Example 136, 2-methyl-5-[2-(5,6,7,8-tetrahydronaphthalen-1-yloxy)phenyl]-1H-pyrrole-3-carboxamide]
- Ki [1]: 1.98 µM
- Ki [2]: 0.564 µM

Compound: CCc1ccc(Oc2ccccc2-c2cc(C(N)=O)c(C)[nH]2)cc1 [Example 143, 5-[2-(4-ethylphenoxy)phenyl]-2-methyl-1H-pyrrole-3-carboxamide]
- Ki [1]: 2.11 µM
- Ki [2]: 0.259 µM

Compound: Cc1[nH]c(-c2ccccc2Oc2ccc3c(c2)CCC3)cc1C(N)=O [Example 144, 5-[2-(2,3-dihydro-1H-inden-5-yloxy)phenyl]-2-methyl-1H-pyrrole-3-carboxamide]
- Ki [1]: 1.23 µM
- Ki [2]: 0.446 µM

Compound: Cc1[nH]c(-c2c(F)cccc2F)cc1C(N)=O [Example 147, 5-(2,6-difluorophenyl)-2-methyl-1H-pyrrole-3-carboxamide]
- Ki [1]: 12.2 µM
- Ki [2]: 11.9 µM

Compound: Cc1[nH]c(-c2cccc(-c3ccccc3)c2)cc1C(N)=O [Example 150, 5-(biphenyl-3-yl)-2-methyl-1H-pyrrole-3-carboxamide]
- Ki [1]: 9.69 µM
- Ki [2]: 10.7 µM

Compound: Cc1[nH]c(-c2cccc(-c3ccsc3)c2)cc1C(N)=O [Example 152, 2-methyl-5-[3-(thiophen-3-yl)phenyl]-1H-pyrrole-3-carboxamide]
- Ki [1]: 7.87 µM
- Ki [2]: 4.7 µM

Compound: Cc1[nH]c(-c2cccc(-c3cccnc3)c2)cc1C(N)=O [Example 154, 2-methyl-5-[3-(pyridin-3-yl)phenyl]-1H-pyrrole-3-carboxamide]
- Ki [1]: 7.12 µM
- Ki [2]: 2.99 µM

Compound: Cc1[nH]c(-c2cccc(-c3cn[nH]c3)c2)cc1C(N)=O [Example 155, 2-methyl-5-[3-(1H-pyrazol-4-yl)phenyl]-1H-pyrrole-3-carboxamide]
- Ki [1]: 5.46 µM
- Ki [2]: 2.57 µM

The remaining compounds from weak to strong by Ki [1], led by results:

- Ki [1]: 21.5 µM
- Ki [2]: 4.82 µM
Compound: COC(=O)CNC(=O)c1cc(-c2ccc(-c3c(C)noc3C)cc2)[nH]c1C [Example 94, methyl N-({5-[4-(3,5-dimethyl-1,2-oxazol-4-yl)phenyl]-2-methyl-1H-pyrrol-3-yl}carbonyl)glycinate]

- Ki [1]: 12.6 µM
- Ki [2]: 1.97 µM
Compound: Cc1[nH]c(-c2ccccc2Oc2ccc(C#N)cc2)cc1C(N)=O [Example 123, 5-[2-(4-cyanophenoxy)phenyl]-2-methyl-1H-pyrrole-3-carboxamide]

- Ki [1]: 7.32 µM
- Ki [2]: 2.22 µM
Compound: CC(=O)c1ccccc1-c1cccc(-c2cc(C(N)=O)c(C)[nH]2)c1 [Example 153, 5-(2′-acetylbiphenyl-3-yl)-2-methyl-1H-pyrrole-3-carboxamide]

- Ki [1]: 7.12 µM
- Ki [2]: 1.85 µM
Compound: Cc1[nH]c(-c2ccccc2Br)cc1C(N)=O [Example 115, 5-(2-bromophenyl)-2-methyl-1H-pyrrole-3-carboxamide]

- Ki [1]: 7.04 µM
- Ki [2]: 1.96 µM
Compound: Cc1[nH]c(-c2ccccc2Oc2ccc(Oc3ccccc3)cc2)cc1C(N)=O [Example 122, 2-methyl-5-[2-(4-phenoxyphenoxy)phenyl]-1H-pyrrole-3-carboxamide]

- Ki [1]: 5.74 µM
- Ki [2]: 6.9 µM
Compound: Cc1[nH]c(-c2ccc(-c3cnn(Cc4ccccc4)c3)cc2)cc1C(N)=O [Example 111, 5-[4-(1-benzyl-1H-pyrazol-4-yl)phenyl]-2-methyl-1H-pyrrole-3-carboxamide]

- Ki [1]: 5.62 µM
- Ki [2]: 5.07 µM
Compound: Cc1noc(C)c1-c1ccc(-c2cc(C(=O)NO)c(C)[nH]2)cc1 [Example 95, 5-[4-(3,5-dimethyl-1,2-oxazol-4-yl)phenyl]-N-hydroxy-2-methyl-1H-pyrrole-3-carboxamide]

- Ki [1]: 5.34 µM
- Ki [2]: 6.78 µM
Compound: Cc1[nH]c(-c2ccc(-c3cccc(N4CCOCC4)c3)cc2)cc1C(N)=O [Example 105, 2-methyl-5-[3′-(morpholin-4-yl)biphenyl-4-yl]-1H-pyrrole-3-carboxamide]

- Ki [1]: 4.87 µM
- Ki [2]: 6.01 µM
Compound: Cc1[nH]c(-c2ccc(-c3cccc(C(=O)NCc4ccco4)c3)cc2)cc1C(N)=O [Example 106, 5-{3′-[(furan-2-ylmethyl)carbamoyl]biphenyl-4-yl}-2-methyl-1H-pyrrole-3-carboxamide]

- Ki [1]: 4.42 µM
- Ki [2]: 9.24 µM
Compound: Cc1[nH]c(-c2ccc(-c3cncnc3)cc2)cc1C(N)=O [Example 109, 2-methyl-5-[4-(pyrimidin-5-yl)phenyl]-1H-pyrrole-3-carboxamide]

- Ki [1]: 4.37 µM
- Ki [2]: 5.68 µM
Compound: Cc1[nH]c(-c2ccc(-c3ccncc3)cc2)cc1C(N)=O [Example 102, 2-methyl-5-[4-(pyridin-4-yl)phenyl]-1H-pyrrole-3-carboxamide]

- Ki [1]: 4.31 µM
- Ki [2]: 5.43 µM
Compound: Cc1n[nH]c(C)c1-c1ccc(-c2cc(C(N)=O)c(C)[nH]2)cc1 [Example 112, 5-[4-(3,5-dimethyl-1H-pyrazol-4-yl)phenyl]-2-methyl-1H-pyrrole-3-carboxamide]

- Ki [1]: 2.34 µM
- Ki [2]: 2.38 µM
Compound: Cc1[nH]c(-c2ccc(-c3cccc(C(=O)N(C)C)c3)cc2)cc1C(N)=O [Example 104, 5-[3′-(dimethylcarbamoyl)biphenyl-4-yl]-2-methyl-1H-pyrrole-3-carboxamide]

- Ki [1]: 2.32 µM
- Ki [2]: 2.3 µM
Compound: COc1cc(-c2ccc(-c3cc(C(N)=O)c(C)[nH]3)cc2)cc(OC)c1OC [Example 99, 2-methyl-5-(3′,4′,5′-trimethoxybiphenyl-4-yl)-1H-pyrrole-3-carboxamide]

- Ki [1]: 1.82 µM
- Ki [2]: 1.48 µM
Compound: Cc1[nH]c(-c2ccccc2Oc2ccccc2Cc2ccccc2)cc1C(N)=O [Example 138, 5-[2-(2-benzylphenoxy)phenyl]-2-methyl-1H-pyrrole-3-carboxamide]

- Ki [1]: 1.3 µM
- Ki [2]: 0.607 µM
Compound: Cc1[nH]c(-c2ccccc2Oc2cccc3ccccc23)cc1C(N)=O [Example 140, 2-methyl-5-[2-(naphthalen-1-yloxy)phenyl]-1H-pyrrole-3-carboxamide]
